pEC50: −log10 of the molar value.
Columns and labels:
[1] = biological target: T1, Peroxisome proliferator-activated receptor delta (Homo sapiens, UniProt Q03181); assay: Agonist activity at human PPARdelta expressed in HEK293T cells incubated for 12 to 14 hrs by Dual-Glo luciferase assay; type: cell-based
T1 sequence (Q03181 whole entry): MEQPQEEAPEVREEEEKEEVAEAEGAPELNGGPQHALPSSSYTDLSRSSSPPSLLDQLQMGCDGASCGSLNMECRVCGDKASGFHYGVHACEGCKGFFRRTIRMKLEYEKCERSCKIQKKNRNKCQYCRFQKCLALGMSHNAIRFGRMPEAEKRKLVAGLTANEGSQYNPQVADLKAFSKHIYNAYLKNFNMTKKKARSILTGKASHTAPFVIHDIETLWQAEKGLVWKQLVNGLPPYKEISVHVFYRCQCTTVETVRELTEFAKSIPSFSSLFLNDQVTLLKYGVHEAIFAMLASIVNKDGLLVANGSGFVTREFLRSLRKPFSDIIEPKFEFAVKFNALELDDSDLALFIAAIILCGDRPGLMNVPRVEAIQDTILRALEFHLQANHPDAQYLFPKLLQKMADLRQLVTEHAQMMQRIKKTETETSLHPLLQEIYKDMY

Bile acid receptor = biological target: T2, Bile acid receptor (Homo sapiens, UniProt Q96RI1); assay: Agonist activity at FXR in human HeLa cells incubated for 24 hrs by Dual-Glo luciferase assay; type: cell-based
T2 sequence (Q96RI1 whole entry): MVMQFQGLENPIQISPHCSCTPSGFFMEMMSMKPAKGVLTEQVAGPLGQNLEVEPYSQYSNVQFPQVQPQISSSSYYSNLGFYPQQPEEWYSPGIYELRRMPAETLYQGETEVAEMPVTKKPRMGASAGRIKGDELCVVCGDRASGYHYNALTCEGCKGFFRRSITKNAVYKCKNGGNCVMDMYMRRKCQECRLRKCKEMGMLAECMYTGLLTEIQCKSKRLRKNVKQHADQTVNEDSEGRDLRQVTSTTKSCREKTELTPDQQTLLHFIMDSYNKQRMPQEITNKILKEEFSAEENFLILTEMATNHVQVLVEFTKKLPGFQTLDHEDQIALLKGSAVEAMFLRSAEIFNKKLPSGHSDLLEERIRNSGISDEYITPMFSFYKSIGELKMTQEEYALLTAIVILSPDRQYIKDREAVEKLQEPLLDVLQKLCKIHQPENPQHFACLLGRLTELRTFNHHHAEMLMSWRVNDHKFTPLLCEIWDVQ

Q: `CC(C)c1onc(-c2c(Cl)cccc2Cl)c1COc1ccc(CNc2ccc(CC(=O)O)cc2)c(Cl)c1` was tested. Which pEC50 [1] did it give?
A: Its pEC50 is 5.82.

Q: And the pEC50 (Bile acid receptor)?
A: The pEC50 was 6.03.

From ChEMBL document CHEMBL5233278, “Recent Advances in the Medicinal Chemistry of Farnesoid X Receptor” (J Med Chem, 2021)
